Assay results from patent publication US8735384B2, “Amino heteroaryl compounds as beta-secretase modulators and methods of use” (Amgen Inc., priority 2010, dated 2014).

What was measured:
BACE1 = BACE1 (Homo sapiens, UniProt P56817); test: In vitro enzymatic BACE FRET assay; format: biochemical; settings: beta secretase enzyme 0.2 nM, FRET substrate 50 nM, pH 4.2; read-out: BACE1 FRET assay (IC50 class)
Description: In Vitro Enzymatic BACE FRET (Fluorescence Resonance Energy Transfer) Assay (Enzyme Assay Data in Table 1)
The assay buffer used in this screen is 0.05 M acetate, pH 4.2, 10% DMSO final, 100 uM genapol (which is a nonionic detergent, below its Critical Micelle Concentration). The beta secretase enzyme (0.2 nM) is pre-incubated for one hour with inhibitors, typically in about 1 uL of DMSO according to a serial dilution, are added thereto. The assay is effectively started by the addition of FRET substrate (50 nM) and the combination is incubated for one hour. The FRET assay is terminated with by addition of Tris buffer, which raises the pH to neutrality, and the fluorescence is determined. The FRET substrate is a peptide with commercially available fluorophore and quencher, on opposite sides of the BACE cleavage site. Proteolytic cleavage of the FRET substrate releases quenching of fluorescence (excitation […] and […]).
Of the compounds tested, the in-vitro BACE FRET enzyme data for each of Examples 1-220, where available at the time of filing this application, is provided in Table 1.

[1] = tested on: Aβ40 in conditioned medium of cells stably expressing Amyloid Precursor Protein (APP); test: In vitro BACE cell-based assay (HEK cell assay), Aβ40 sandwich ELISA; settings: Homo sapiens, HEK293, 24 h, inhibition of Aβ40, 24 h incubation, read-out: HEK cell assay (IC50 class)
Description: In Vitro BACE Cell-Based Assay:
The cell-based assay measures inhibition or reduction of Aβ40 in conditioned medium of test compound treated cells expressing amyloid precursor protein.
Cells stably expressing Amyloid Precursor Protein (APP) were plated at a density of 40K cells/well in 96 well plates (Costar). The cells were cultivated for 24 hours at 37° C. and 5% CO2 in DMEM supplemented with 10% FBS. The test compounds were then added to cells in 10-point dose response concentrations with the starting concentration being either 100 μM or 10 μM. The compounds were diluted from stock solutions in DMSO and the final DMSO concentration of the test compounds on cells was 0.1%. After 24 h of incubation with the test compounds the supernatant conditioned media was collected and the Aβ 40 levels were determined using a sandwich ELISA. The IC50 of the compound was calculated from the percent of control or percent inhibition of Aβ 40 as a function of the concentration of the test compound.
The sandwich ELISA to detect Aβ 40 was performed in 96 well microtiter plates, which were pre-treated with goat anti-rabbit IgG (Pierce). The capture and detecting antibody pair that were used to detect Aβ 40 from cell supernatants were affinity purified pAb40 (Biosource) and biotinylated 6E10 (Signet Labs Inc.), respectively. The optimal concentration for the pAb40 antibody was 3 μg/ml in Superblock/TBS (Pierce) that was supplemented with 0.05% Tween 20 (Sigma). Optimal concentration for the detection antibody 6E10-biotinylated was 0.5 μg/ml in Superblock/TBS (Pierce) that had been supplemented with 2% normal goat serum and 2% normal mouse serum.
Cellular supernatants were incubated with the capture antibody for 3 h at 4° C., followed by 3 wash steps in TBS-tween (0.05%). The detecting antibody incubation was for 2 h at 4° C., again followed by the wash steps as described previously. The final readout of the ELISA is Time-Resolved Fluorescence (counts per minute) using Delfia reagents Streptavidin-Europium and Enhancement solutions (Perkin Elmer) and the Victor 2 multilabel counter (Perkin Elmer).

Sequence of BACE1 (P56817 46-501, species assumed): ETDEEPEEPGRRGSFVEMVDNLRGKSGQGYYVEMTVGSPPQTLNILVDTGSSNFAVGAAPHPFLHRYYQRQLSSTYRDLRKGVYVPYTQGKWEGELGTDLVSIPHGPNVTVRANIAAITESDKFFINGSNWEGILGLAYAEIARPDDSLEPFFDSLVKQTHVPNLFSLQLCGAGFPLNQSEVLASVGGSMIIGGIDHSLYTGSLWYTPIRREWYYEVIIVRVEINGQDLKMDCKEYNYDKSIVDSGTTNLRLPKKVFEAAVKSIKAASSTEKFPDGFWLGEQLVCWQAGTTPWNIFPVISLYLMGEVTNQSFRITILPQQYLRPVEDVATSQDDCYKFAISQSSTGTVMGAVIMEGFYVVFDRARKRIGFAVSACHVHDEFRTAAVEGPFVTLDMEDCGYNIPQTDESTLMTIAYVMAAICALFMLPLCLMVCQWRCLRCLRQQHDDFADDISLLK

Cc1cccc(Cc2ccccc2)c1-c1ccc2nc(N)c(N3CCOCC3)cc2c1 [Example 18, 6-(2-benzyl-6-methylphenyl)-3-morpholinoquinolin-2-amine]
IC50 (BACE1): < 0.1 µM | IC50 [1]: 1.01 to 5 µM

CCCC(=O)c1cccc(C)c1-c1ccc2nc(N)c(N3CCOCC3)cc2c1 [Example 179, 1-(2-(2-amino-3-morpholinoquinolin-6-yl)-3-methylphenyl)butan-1-one]
IC50 (BACE1): 0.1 to 0.5 µM | IC50 [1]: 1.01 to 5 µM

Cc1cccc(C(=O)c2ccc(Cl)cc2)c1-c1ccc2nc(N)c(N3CCOCC3)cc2c1 [Example 176, (2-(2-amino-3-morpholinoquinolin-6-yl)-3-methylphenyl)(4-chlorophenyl)methanone]
IC50 (BACE1): < 0.1 µM | IC50 [1]: 1.01 to 5 µM

Cc1cccc(-c2ncc3ccccn23)c1-c1ccc2nc(N)c(N3CCOCC3)cc2c1 [Example 30, 6-(2-(imidazo[1,5-a]pyridin-3-yl)-6-methylphenyl)-3-morpholinoquinolin-2-amine]
IC50 (BACE1): 0.1 to 0.5 µM | IC50 [1]: 1.01 to 5 µM

Nc1nc2ccc(-c3ccccc3C(=O)CC3CCCC3)cc2cc1N1CCOCC1 [Example 156, 1-(2-(2-amino-3-morpholinoquinolin-6-yl)phenyl)-2-cyclopentylethanone]
IC50 (BACE1): < 0.1 µM | IC50 [1]: 1.01 to 5 µM

Cc1cccc(C(c2ccccc2)n2ccnc2)c1-c1ccc2nc(N)c(N3CCOCC3)cc2c1 (stereo not shown) [Example 8, 6-(2-((1H-imidazol-1-yl)(phenyl)methyl)-6-methylphenyl)-3-morpholinoquinolin-2-amine]
IC50 (BACE1): 1.01 to 5 µM | IC50 [1]: 1.01 to 5 µM

Cc1cccc(-c2nnc3ccccn23)c1-c1ccc2nc(N)c(N3CCOCC3)cc2c1 [Example 22, 6-(2-([1,2,4]triazolo[4,3-a]pyridin-3-yl)-6-methylphenyl)-3-morpholinoquinolin-2-amine]
IC50 (BACE1): 0.1 to 0.5 µM | IC50 [1]: 0.501 to 1 µM

Cc1cccc(C(=O)N2CCC2)c1-c1ccc2nc(N)c(N3CCOCC3)cc2c1 [Example 103, (2-(2-amino-3-morpholinoquinolin-6-yl)-3-methylphenyl)(azetidin-1-yl)methanone]
IC50 (BACE1): 0.1 to 0.5 µM | IC50 [1]: 0.501 to 1 µM

Nc1nc2ccc(-c3c(Cl)cccc3C(=O)N3CCCCC3)cc2cc1N1CCOCC1 [Example 143, (2-(2-amino-3-morpholinoquinolin-6-yl)-3-chlorophenyl)(piperidin-1-yl)methanone]
IC50 (BACE1): < 0.1 µM | IC50 [1]: 1.01 to 5 µM

Nc1nc2ccc(-c3c(Cl)cccc3C(=O)N3CCCC3)cc2cc1N1CCOCC1 [Example 42, (2-(2-amino-3-morpholinoquinolin-6-yl)-3-chlorophenyl)(pyrrolidin-1-yl)methanone]
IC50 (BACE1): < 0.1 µM | IC50 [1]: 0.501 to 1 µM

CC(C)(C)C#Cc1cccc(C(=O)N2CCCC2)c1-c1ccc2nc(N)c(N3CCOCC3)cc2c1 [Example 44, (2-(2-amino-3-morpholinoquinolin-6-yl)-3-(3,3-dimethylbut-1-ynyl)phenyl)(pyrrolidin-1-yl)methanone]
IC50 (BACE1): < 0.1 µM | IC50 [1]: 0.1 to 0.5 µM

CCCCC(=O)c1cccc(C)c1-c1ccc2nc(N)c(N3CCOCC3)cc2c1 [Example 180, 1-(2-(2-amino-3-morpholinoquinolin-6-yl)-3-methylphenyl)pentan-1-one]
IC50 (BACE1): < 0.1 µM | IC50 [1]: 1.01 to 5 µM

CCCN(CC)C(=O)c1cccc(C)c1-c1ccc2nc(N)c(N3CCOCC3)cc2c1 [Example 105, 2-(2-amino-3-morpholinoquinolin-6-yl)-N-ethyl-3-methyl-N-propylbenzamide]
IC50 (BACE1): 0.501 to 1 µM | IC50 [1]: 1.01 to 5 µM

Cc1cccc(C(=O)N2CCC(F)(F)C2)c1-c1ccc2nc(N)c(N3CCOCC3)cc2c1 [Example 98, (2-(2-amino-3-morpholinoquinolin-6-yl)-3-methylphenyl)(3,3-difluoropyrrolidin-1-yl)methanone]
IC50 (BACE1): < 0.1 µM | IC50 [1]: 0.1 to 0.5 µM

COc1cccc(C(=O)c2cccc(C)c2-c2ccc3nc(N)c(N4CCOCC4)cc3c2)c1 [Example 177, (2-(2-amino-3-morpholinoquinolin-6-yl)-3-methylphenyl)(3-methoxyphenyl)methanone]
IC50 (BACE1): 0.1 to 0.5 µM | IC50 [1]: 1.01 to 5 µM

Cc1cccc(C(=O)N(C)CC(C)(C)C)c1-c1ccc2nc(N)c(N3CCOCC3)cc2c1 [Example 41, 2-(2-amino-3-morpholinoquinolin-6-yl)-N,3-dimethyl-N-neopentylbenzamide]
IC50 (BACE1): < 0.1 µM | IC50 [1]: 0.501 to 1 µM

COCC1CCN(C(=O)c2cccc(C)c2-c2ccc3nc(N)c(N4CCOCC4)cc3c2)CC1 [Example 73, (2-(2-amino-3-morpholinoquinolin-6-yl)-3-methylphenyl)(4-(methoxymethyl)piperidin-1-yl)methanone]
IC50 (BACE1): 0.1 to 0.5 µM | IC50 [1]: 1.01 to 5 µM

Cc1cccc(Cc2cccc(C#N)c2)c1-c1ccc2nc(N)c(N3CCOCC3)cc2c1 [Example 200, 3-(2-(2-amino-3-morpholinoquinolin-6-yl)-3-methylbenzyl)benzonitrile]
IC50 (BACE1): < 0.1 µM | IC50 [1]: 1.01 to 5 µM

CCCC(=N)c1cccc(C)c1-c1ccc2nc(N)c(N3CCOCC3)cc2c1 [Example 14, 6-(2-(1-iminobutyl)-6-methylphenyl)-3-morpholinoquinolin-2-amine]
IC50 (BACE1): 0.1 to 0.5 µM | IC50 [1]: > 5 µM

Cc1cccc(C(=O)C2CCCC2)c1-c1ccc2nc(N)c(N3CCOCC3)cc2c1 [Example 184, (2-(2-amino-3-morpholinoquinolin-6-yl)-3-methylphenyl)(cyclopentyl)methanone]
IC50 (BACE1): < 0.1 µM | IC50 [1]: 0.501 to 1 µM

Cc1cccc(OCC(C)(C)C)c1-c1ccc2nc(N)c(N3CCOCC3)cc2c1 [Example 52, 6-(2-methyl-6-(neopentyloxy)phenyl)-3-morpholinoquinolin-2-amine]
IC50 (BACE1): < 0.1 µM | IC50 [1]: > 5 µM

Nc1nc2cc(F)c(-c3ccccc3C(=O)N3CCCC3)cc2cc1N1CCOCC1 [Example 140, (2-(2-amino-7-fluoro-3-morpholinoquinolin-6-yl)phenyl)(pyrrolidin-1-yl)methanone]
IC50 (BACE1): 0.1 to 0.5 µM | IC50 [1]: 1.01 to 5 µM

Cc1cccc(OC2CCOC2)c1-c1ccc2nc(N)c(N3CCOCC3)cc2c1 (stereo not shown) [Example 54, 6-(2-methyl-6-(tetrahydrofuran-3-yloxy)phenyl)-3-morpholinoquinolin-2-amine]
IC50 (BACE1): 0.501 to 1 µM | IC50 [1]: 1.01 to 5 µM

COc1ccccc1C(=O)c1cccc(C)c1-c1ccc2nc(N)c(C3CCOCC3)cc2c1 [Example 212, (2-(2-amino-3-(tetrahydro-2H-pyran-4-yl)quinolin-6-yl)-3-methylphenyl)(2-methoxyphenyl)methanone]
IC50 (BACE1): < 0.1 µM | IC50 [1]: < 0.1 µM

Cc1cccc(C(=O)N2CCCCC2C)c1-c1ccc2nc(N)c(N3CCOCC3)cc2c1 (stereo not shown) [Example 87, (2-(2-amino-3-morpholinoquinolin-6-yl)-3-methylphenyl)(2-methylpiperidin-1-yl)methanone]
IC50 (BACE1): < 0.1 µM | IC50 [1]: 0.501 to 1 µM

CCN(C)C(=O)c1cccc(C)c1-c1ccc2nc(N)c(N3CCOCC3)cc2c1 [Example 121, 2-(2-amino-3-morpholinoquinolin-6-yl)-N-ethyl-N,3-dimethylbenzamide]
IC50 (BACE1): 0.1 to 0.5 µM | IC50 [1]: 1.01 to 5 µM

Cc1cccc(C(=O)N2CCCC2)c1-c1ccc2nc(N)c(C3CCOC(C)(C)C3)cc2c1 (stereo not shown) [Example 205, (2-(2-amino-3-(2,2-dimethyltetrahydro-2H-pyran-4-yl)quinolin-6-yl)-3-methylphenyl)(pyrrolidin-1-yl)methanone]
IC50 (BACE1): < 0.1 µM | IC50 [1]: < 0.1 µM

Nc1nc2ccc(-c3cc(Cl)ccc3C(=O)N3CCCC3)cc2cc1N1CCOCC1 [Example 154, (2-(2-amino-3-morpholinoquinolin-6-yl)-4-chlorophenyl)(pyrrolidin-1-yl)methanone]
IC50 (BACE1): < 0.1 µM | IC50 [1]: 0.501 to 1 µM

Cc1ccc(N(C)C(=O)c2cccc(C)c2-c2ccc3nc(N)c(N4CCOCC4)cc3c2)cc1 [Example 131, 2-(2-amino-3-morpholinoquinolin-6-yl)-N,3-dimethyl-N-p-tolylbenzamide]
IC50 (BACE1): < 0.1 µM | IC50 [1]: 1.01 to 5 µM
